Data on 3 compounds can be found in patent publication US20210292304A1 (HINOVA PHARMACEUTICALS INC., priority 2018, published 2021).

This data set has as its target T1, CYP2C8 (Homo sapiens, UniProt P10632).
T1 sequence (P10632 1-490): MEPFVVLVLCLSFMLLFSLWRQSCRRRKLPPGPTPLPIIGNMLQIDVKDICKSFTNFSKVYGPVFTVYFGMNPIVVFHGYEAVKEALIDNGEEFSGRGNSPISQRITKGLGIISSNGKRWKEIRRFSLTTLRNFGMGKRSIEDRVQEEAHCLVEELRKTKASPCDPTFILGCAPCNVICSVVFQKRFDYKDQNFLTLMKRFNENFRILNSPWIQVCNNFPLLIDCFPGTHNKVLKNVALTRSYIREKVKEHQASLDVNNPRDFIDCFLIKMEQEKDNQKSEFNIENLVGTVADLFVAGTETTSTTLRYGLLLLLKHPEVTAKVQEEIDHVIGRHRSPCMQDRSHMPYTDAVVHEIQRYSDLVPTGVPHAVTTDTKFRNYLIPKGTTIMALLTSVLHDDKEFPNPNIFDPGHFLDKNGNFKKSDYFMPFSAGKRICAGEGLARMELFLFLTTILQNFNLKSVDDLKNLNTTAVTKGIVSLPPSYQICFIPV
The experiment in a line: Metabolic stability in recombinant human CYP2C8 metabolic enzyme. The class given is in vitro ADME. Conditions: CYP subtype 2C8, test concentration 2 (M); for half-life at 2 µM: human, recombinant CYP2C8, pH 7.4, read-out: Half-life T1/2. The protocol: 1) Na2HPO4, KH2PO4, and pure water were used to prepare phosphate buffer (100 mM, pH 7.4);
2) Test compound and reference compound were dissolved in acetonitrile to obtain a working solution (200 M);
3) NADPH solution (10 mM) was prepared with NADPH and phosphate buffer (100 mM, pH 7.4);
4) The stock solution of recombinant CYP2C8 enzyme was diluted to […] with phosphate buffer (100 mM, pH 7.4);
5) The working solution of test compound or reference compound Amitriptyline was added to CYP2C8 solution, and the concentration of compound was 2 M, to which was added NADPH solution (10 mM) to initiate a metabolic reaction. 30 L incubation solution of metabolic reaction was collected at 0, 5, 10, 15, 25 minutes, and transferred to a quenching plate to quench with 120 L acetonitrile (including internal standard);
6) The sample was centrifuged at 4° C. for 60 min to precipitate the protein. The supernatant was collected and transferred to a 96-well plate, then diluted one times with pure water, and subjected to LC-MS/MS analysis;
7) The data analysis and calculation were similar to experimental example 2.

SMILES strings stand for the structures.

For `[2H]c1c(Oc2c(Cl)cc(-n3nc(C#N)c(=O)[nH]c3=O)cc2Cl)n[nH]c(=O)c1C([2H])(C([2H])([2H])[2H])C([2H])([2H])[2H]` [Compound 10, 2-(3,5-dichloro-4-((4-deuterio-5-(heptadeuteroisopropyl)-6-oxo-1,6-dihydro-pyridazin3-yl)oxy)phenyl)-3,5-dioxo-2,3,4,5-tetrahydro-1,2,4-triazine-6-carbonitrile], the “Clearance rate CLint” value is recorded as 0.07 μL/min/pmol CYP450, the “Percentage of residual substances after 25 minutes” value (“Percentage of residual substances” below) was determined as 81.60% and the half-life at 2 µM came out at 1.6 h.
Take `[2H]C([2H])([2H])C([2H])(c1cc(Oc2c(Cl)cc(-n3nc(C#N)c(=O)[nH]c3=O)cc2Cl)n[nH]c1=O)C([2H])([2H])[2H]` [Compound 2]: the “Clearance rate CLint” value is recorded as 0.08 μL/min/pmol CYP450, the “Percentage of residual substances” value was 80.87% and the half-life at 2 µM worked out at 1.51 h.
Turning to `[2H]c1c(Oc2c(Cl)cc(-n3nc(C#N)c(=O)[nH]c3=O)cc2Cl)n[nH]c(=O)c1C(C([2H])([2H])[2H])C([2H])([2H])[2H]` [Compound 11, 2-(3,5-dichloro-4-((4-deuterio-5-(1,1,1,3,3,3-hexadeuteropropan-2-yl)-6-oxo-1,6-dihydro-pyridazin-3-yl)oxy)phenyl)-3,5-dioxo-2,3,4,5-tetrahydro-1,2,4-triazine-6-carbonitrile], the “Clearance rate CLint” value is 0.06 μL/min/pmol CYP450, the “Percentage of residual substances” value is reported as 85.57% and the half-life at 2 µM stood at 1.83 h.
